In patent US10076519B2 (CYTOKINETICS, INC., priority 2010, dated 2018):

What follows are compounds tested on rabbit skeletal myofibrils (fast skeletal myofibrils) (assay: Activation of fast skeletal myofibrils (PUMA assay, PK/LDH-coupled ATPase at pCa25)). Conditions: AC1.4 determined according to the procedure of Example 39; reported as class symbols.
Type: biochemical
Method in brief: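 ATPase activity of Triton-washed rabbit skeletal myofibrils, roughly 90% fast fibres, tracked by NADH loss at 340 nm through a PK/LDH-coupled ADP-regenerating system. Calcium set to 25% of maximal activity (pCa25), in PIPES 12 mM pH 6.8 with 2 mM MgCl2 and 1 mM DTT; AC1.4 reported.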

Q: Which “Mean AC1.4” value does the source give for `CC(C)(CNc1ccc(C(=O)NC2(C(=O)O)CC2)nn1)c1ccc(F)cc1` [1-[(6-{[2-(4-fluorophenyl)-2-methylpropyl]amino}pyridazin-3-yl)carbonylamino]cyclopropane-carboxylic acid] here?
A: D (D=>20 uM)

Q: Which “Mean AC1.4” value does the source give for `CC(=O)NCc1ccc(-c2ccc(NCC(C)(C)c3ccc(F)cc3)nn2)cn1` [N-{[5-(6-{[2-(4-fluorophenyl)-2-methylpropyl]amino}pyridazin-3-yl)-2-pyridyl]methyl}acetamide] here?
A: C (C=10-20 uM)

Q: How did the “Mean AC1.4” value turn out when `c1ccc(C2(CNc3ccc(-c4ccc5[nH]ncc5c4)nn3)CCC2)nc1` [(6-(1H-indazol-5-yl)pyridazin-3-yl)[(2-pyridylcyclobutyl)methyl]amine] was run?
A: A (A=<1 uM)

Q: Which “Mean AC1.4” value does the source give for `Cc1n[nH]c2cc(-c3ccc(NCC(C)(C)c4ccc(F)cc4)nn3)ccc12` [[2-(4-fluorophenyl)-2-methylpropyl][6-(3-methyl(1H-indazol-6-yl))pyridazin-3-yl]amine] here?
A: B (B=1-10 uM)

Q: How did the “Mean AC1.4” value turn out when `CC(C)(CNc1ccc(-c2ccc3[nH]nc(NCC(F)(F)F)c3c2)nn1)c1ccc(F)cc1` [[2-(4-fluorophenyl)-2-methylpropyl](6-{3-[(2,2,2-trifluoroethyl)amino](1H-indazol-5-yl)}pyridazin-3-yl)amine] was run?
A: A (A=<1 uM)

Q: `CC(C)(C)OC(=O)N(CC(C)(C)c1ccc(F)cc1)c1ccc(-c2cc(C(N)=O)ccc2F)nn1` was tested. Which “Mean AC1.4” value did it give?
A: D (D=>20 uM)

Q: With `NC(=O)c1cccc(-c2ccc(NCC3(c4ncccc4F)CCC3)nn2)c1F` as the compound, how does the “Mean AC1.4” value read?
A: B (B=1-10 uM)

Q: With `CC(C)(C)CNc1ccc(-c2ccc3[nH]c(=O)[nH]c3c2)nn1` as the compound, how does the “Mean AC1.4” value read?
A: D (D=>20 uM)

Q: How did the “Mean AC1.4” value turn out when `N#Cc1ccnc(C2(CNc3ccc(-c4ccc5[nH]ncc5c4)nn3)CCC2)c1` was run?
A: A (A=<1 uM)

Q: Which “Mean AC1.4” value does the source give for `C[C@H](CNc1ccc(-c2cccc(C(N)=O)c2)nn1)c1ccc(F)cc1` here?
A: B (B=1-10 uM)

Q: With `COc1ccc(CCNc2ccc(-c3cccc(C(N)=O)c3)nn2)cc1` as the compound, how does the “Mean AC1.4” value read?
A: D (D=>20 uM)

Q: Which “Mean AC1.4” value does the source give for `COc1ccnc(C2(CNc3ccc(-c4cc(C(N)=O)ccc4F)nn3)CCC2)c1` here?
A: B (B=1-10 uM)

Q: For `CC(C)(CNc1ccc(-c2cccc(C(N)=O)c2)nn1)c1ccc(F)cc1` [3-(6-{[2-(4-fluorophenyl)-2-methylpropyl]amino}pyridazin-3-yl)benzamide], which “Mean AC1.4” value is on record?
A: A (A=<1 uM)

Q: For `CC(C)(C)OC(=O)N(CC(C)(C)c1ccc(F)cc1)c1ccc(-c2cccc(C(N)=O)c2)nn1`, which “Mean AC1.4” value is on record?
A: D (D=>20 uM)

Q: How did the “Mean AC1.4” value turn out when `CC(C)(CNc1ccc(-c2ccc3c(N)n[nH]c3c2)nn1)c1ccc(F)cn1` [[6-(3-amino(1H-indazol-6-yl))pyridazin-3-yl][2-(5-fluoro(2-pyridyl))-2-methylpropyl]amine] was run?
A: C (C=10-20 uM)

Q: How did the “Mean AC1.4” value turn out when `CC(C)(CNc1ccc(-c2cncc(C#N)c2)nn1)c1ccccc1Cl` [5-(6-{[2-(2-chlorophenyl)-2-methylpropyl]amino}pyridazin-3-yl)pyridine-3-carbonitrile] was run?
A: B (B=1-10 uM)

Q: `CCNc1n[nH]c2ccc(-c3ccc(NCC4(c5ccccn5)CCC4)nn3)cc12` [{6-[3-(ethylamino)(1H-indazol-5-yl)]pyridazin-3-yl}[(2-pyridylcyclobutyl)methyl]amine] was tested. Which “Mean AC1.4” value did it give?
A: A (A=<1 uM)

Q: `CC(C)(CNc1ccc(-c2cc(=O)[nH]c(N)n2)nn1)c1ccc(F)cc1` was tested. Which “Mean AC1.4” value did it give?
A: B (B=1-10 uM)

Q: With `CC(C)(CNc1ccc(-c2cnc(N)nc2)nn1)c1ccc(F)cc1` [[6-(2-aminopyrimidin-5-yl)pyridazin-3-yl][2-(4-fluorophenyl)-2-methylpropyl]amine] as the compound, how does the “Mean AC1.4” value read?
A: B (B=1-10 uM)

Q: For `CC(C)(CNc1ccc(-c2ccc3[nH]nc(N)c3c2)nn1)c1ncco1` [[6-(3-amino(1H-indazol-5-yl))pyridazin-3-yl](2-methyl-2-(1,3-oxazol-2-yl)propyl)amine], which “Mean AC1.4” value is on record?
A: D (D=>20 uM)

Q: How did the “Mean AC1.4” value turn out when `CC(C)(CNc1ccc(-c2cccc(C(=O)N3CCNCC3)c2)nn1)c1ccc(F)cc1` [3-(6-{[2-(4-fluorophenyl)-2-methylpropyl]amino}pyridazin-3-yl)phenyl piperazinyl ketone] was run?
A: B (B=1-10 uM)

Same assay, conditions: median AC1.4 class, procedure of Example 39

Q: For `Fc1cccnc1C1(Nc2ccc(C3=CCCCC3)nn2)CCC1` [(6-cyclohex-1-enylpyridazin-3-yl)[(3-fluoro(2-pyridyl))cyclobutyl]amine], which “Mean AC1.4” value is on record?
A: C (C=10-20 uM)

Q: Which “Mean AC1.4” value does the source give for `CNC(=O)c1cc(-c2ccc(NC3(c4ccc(F)cc4)CCC3)nn2)ccn1` here?
A: B (B=1-10 uM)

Q: Which “Mean AC1.4” value does the source give for `NC(=O)C(N)c1cccc(-c2ccc(NCC3(c4ncccc4F)CCC3)nn2)c1` (centres unmarked) here?
A: C (C=10-20 uM)

Q: How did the “Mean AC1.4” value turn out when `NC(=O)NCc1cnc(-c2ccc(NCC3(c4ncccc4F)CCC3)nn2)s1` [amino-N-({2-[6-({[(3-fluoro(2-pyridyl))cyclobutyl]methyl}ami-no)pyridazin-3-yl](1,3-thiazol-5-yl)}methyl)amide] was run?
A: A (A=<1 uM)

Q: For `Fc1ccc(C2(Nc3ccc(-c4ccncc4F)nn3)CCC2)cc1` [[6-(3-fluoro(4-pyridyl))pyridazin-3-yl][(4-fluorophenyl)cyclobutyl]amine], which “Mean AC1.4” value is on record?
A: B (B=1-10 uM)

Q: With `NC(=O)c1cccc(-c2ccc(NC[C@]3(c4ncccc4F)C[C@H](F)C3)nn2)c1` [3-[6-({[3-fluoro-1-(3-fluoro(2-pyridyl))cyclobutyl]methyl}ami-no)pyridazin-3-yl]benzamide] as the compound, how does the “Mean AC1.4” value read?
A: A (A=<1 uM)

Q: With `O=C1Cc2ccc(-c3ccc(NCC4(c5ncccc5F)CCC4)nn3)cc2N1` as the compound, how does the “Mean AC1.4” value read?
A: B (B=1-10 uM)

Q: For `NCCNC(=O)c1cnc(-c2ccc(NCC3(c4ncccc4F)CCC3)nn2)s1` [N-(2-aminoethyl){2-[6-({[(3-fluoro(2-pyridyl))cyclobutyl]methyl}ami-no)pyridazin-3-yl](1,3-thiazol-5-yl)}carboxamide], which “Mean AC1.4” value is on record?
A: A (A=<1 uM)

Q: With `COc1ccc(-c2ccc(NCC3(c4ncccc4F)CCC3)nn2)nc1` [{[(3-fluoro(2-pyridyl))cyclobutyl]methyl}[6-(5-methoxy(2-pyridyl))pyridazin-3-yl]amine] as the compound, how does the “Mean AC1.4” value read?
A: B (B=1-10 uM)

Q: Which “Mean AC1.4” value does the source give for `Fc1cccnc1C1(CNc2ccc(-c3ncc(CC(F)(F)F)s3)nn2)CCC1` [{[(3-fluoro(2-pyridyl))cyclobutyl]methyl}{6-[5-(2,2,2-trifluoroethyl)(1,3-thiazol-2-yl)]pyridazin-3-yl}amine] here?
A: B (B=1-10 uM)

Q: With `Fc1cccnc1C1(CNc2ccc(-c3nc4cccnc4s3)nn2)CCC1` [{[(3-fluoro(2-pyridyl))cyclobutyl]methyl}(6-(1,3-thiazolino[5,4-b]pyridin-2-yl)pyridazin-3-yl)amine] as the compound, how does the “Mean AC1.4” value read?
A: B (B=1-10 uM)

Q: How did the “Mean AC1.4” value turn out when `NC(=O)c1ccc(-c2ccc(NC3(c4ccc(F)cc4)CCC3)nn2)s1` [5-(6-{[(4-fluorophenyl)cyclobutyl]ami-no}pyridazin-3-yl)thiophene-2-carboxamide] was run?
A: B (B=1-10 uM)

Q: Which “Mean AC1.4” value does the source give for `CC(C)(Nc1ccc(-c2ccc(N)nc2)nn1)c1ccccc1` here?
A: B (B=1-10 uM)

Q: With `CC(C)(CNc1ccc(-c2cc(C(N)=O)ccc2F)nn1)c1ncccc1Cl` [3-(6-{[2-(3-chloro(2-pyridyl))-2-methylpropyl]amino}pyridazin-3-yl)-4-fluorobenzamide] as the compound, how does the “Mean AC1.4” value read?
A: A (A=<1 uM)

Q: `N#C/N=C(/N)c1cnc(-c2ccc(NCC3(c4ncccc4F)CCC3)nn2)s1` [(2E)-3-amino-3-{2-[6-({[(3-fluoro(2-pyridyl))cyclobutyl]methyl}ami-no)pyridazin-3-yl](1,3-thiazol-5-yl)}-2-azaprop-2-enenitrile] was tested. Which “Mean AC1.4” value did it give?
A: B (B=1-10 uM)

Q: With `O=C(O)c1ccc(F)c(-c2ccc(NC[C@]3(c4ncccc4F)C[C@H](F)C3)nn2)c1` [4-fluoro-3-[6-({[3-fluoro-1-(3-fluoro(2-pyridyl))cyclobutyl]methyl}ami-no)pyridazin-3-yl]benzoic acid] as the compound, how does the “Mean AC1.4” value read?
A: A (A=<1 uM)

Q: `COC(=O)c1cnc(-c2ccc(NCC3(c4ncccc4F)CCC3)nn2)o1` [methyl 2-[6-({[(3-fluoro-2-pyridyl)cyclobutyl]methyl}ami-no)pyridazin-3-yl]-1,3-oxazole-5-carboxylate] was tested. Which “Mean AC1.4” value did it give?
A: D (D=>20 uM)

Q: How did the “Mean AC1.4” value turn out when `NC(=O)[C@H]1C[C@@H]1c1ccc(NCC2(c3ncccc3F)CCC2)nn1` was run?
A: D (D=>20 uM)

Q: `NC(=O)NC1CC=C(c2ccc(NCC3(c4ncccc4F)CCC3)nn2)CC1` (centres unmarked) was tested. Which “Mean AC1.4” value did it give?
A: B (B=1-10 uM)

Q: How did the “Mean AC1.4” value turn out when `CS(=O)(=O)CCNC(=O)c1cnc(-c2ccc(NCC3(c4ncccc4F)CCC3)nn2)s1` [{2-[6-({[(3-fluoro(2-pyridyl))cyclobutyl]methyl}ami-no)pyridazin-3-yl](1,3-thiazol-5-yl)}-N-[2-(methylsulfonyl)ethyl]carboxamide] was run?
A: A (A=<1 uM)

Q: How did the “Mean AC1.4” value turn out when `COc1cccc(C2(Nc3ccc(-c4cccc(NS(C)(=O)=O)c4)nn3)CCC2)n1` was run?
A: B (B=1-10 uM)

Q: For `NC(=O)c1cnc(-c2ccc(NCC3(c4ccccn4)CCC3)nn2)s1` [2-(6-{[(2-pyridylcyclobutyl)methyl]ami-no}pyridazin-3-yl)-1,3-thiazole-5-carboxamide], which “Mean AC1.4” value is on record?
A: A (A=<1 uM)

Same assay, conditions: median AC1.4 reported as class; procedure of Example 39

Q: For `CC(=O)N1CC(NC(=O)c2ccc(F)c(-c3ccc(NC[C@]4(c5ncccc5F)C[C@H](F)C4)nn3)c2)C1` [N-(1-acetylazetidin-3-yl){4-fluoro-3-[6-({[3-fluoro-1-(3-fluoro(2-pyridyl))cyclobutyl]methyl}ami-no)pyridazin-3-yl]phenyl}carboxamide], which “Mean AC1.4” value is on record?
A: A (A=<1 uM)

Q: For `O=S1(=O)CCN(Cc2cnc(-c3ccc(NCC4(c5ncccc5F)CCC4)nn3)s2)CC1` [4-({2-[6-({[(3-fluoro-2-pyridyl)cyclobutyl]methyl}ami-no)pyridazin-3-yl]-1,3-thiazol-5-yl}methyl)-1,4-thiazaperhydroine-1,1-dione], which “Mean AC1.4” value is on record?
A: D (D=>20 uM)

Q: Which “Mean AC1.4” value does the source give for `NC(=O)c1cc(Cl)cc(-c2ccc(NC[C@]3(c4ncccc4F)C[C@H](F)C3)nn2)c1` [5-chloro-3-[6-({[3-fluoro-1-(3-fluoro(2-pyridyl))cyclobutyl]methyl}ami-no)pyridazin-3-yl]benzamide] here?
A: B (B=1-10 uM)

Q: Which “Mean AC1.4” value does the source give for `CNC(C)(C)C(=O)NCc1cnc(-c2ccc(NCC3(c4ncccc4F)CCC3)nn2)s1` [N-({2-[6-({[(3-fluoro(2-pyridyl))cyclobutyl]methyl}ami-no)pyridazin-3-yl](1,3-thiazol-5-yl)}methyl)-2-methyl-2-(methylamino)propanamide] here?
A: A (A=<1 uM)
